Data as given in patent US8163939B2, “Ascorbic acid derivative or salt thereof, production method thereof, and cosmetic” (Seikwa Kasei Company, Limited, priority 2007, dated 2012).

Legend:
[1] = Moisturizing test: moisturizing effect by water retention force; assay type: physicochemical
Experimental: A sample shown later was dried, and the dried sample was spread in an amount of about 0.4 g (this weight is represented by W0) on the bottom of a weighing bottle (diameter: 3.6 cm, height excluding lid: 1.8 cm) so as to give uniform thickness. The sample contained in the weighing bottle was allowed to stand still in a constant humidity and constant temperature vessel (ENVIROS KCL-1000, TOKYO RIKAKIKAI CO, LTD) under environments of 25° C. and 65% RH. The weight was measured periodically, waiting until sufficient moisture absorption to attain equilibrium of weight increase (about 48 hours). Thereafter, the sample was transferred to under environments of 25° C. and 20% RH (in sealed vessel containing a saturated CH3COOK aqueous solution filled in the bottom part). From the weight after 24 hours (this weight is represented by W1), the amount of retained water per 1 g of the dried sample was calculated according to the following formula. (W1−W0)/W0
From the water amount thus calculated, the moisturizing effect was judged based on the following judging criterion, and the results are shown in Table 43.
Three compounds: 2,3-di-O-glyceryl ascorbic acid, 2,3-di-O-phenylglyceryl ascorbic acid, and glycerin, and
Six compounds: ascorbic acid, ascorbic acid glucoside, 2-O-glyceryl ascorbic acid, 3-O-glyceryl ascorbic acid, 3-O-butylglyceryl ascorbic acid and 3-O-octylglyceryl ascorbic acid, which were adjusted to pH7 with a dilute sodium hydroxide aqueous solution and concentrated.
◯: 25 mg or more and less than 40 mg
Δ: 10 mg or more and less than 25 mg

[2] = Stability Test 1: 2% aqueous solution, pH7, room temperature, 4 weeks (residual rate, odor, coloration); assay type: physicochemical
Experimental: (§1) Aqueous solutions (2%) of various test samples were adjusted to pH7 with a dilute sodium hydroxide aqueous solution, and charged into 50 mL screw tubes, and the tubes were sealed and stored at room temperature for 4 weeks. Thereafter, HPLC measurement were performed (using liquid chromatography manufactured by Tosoh Corp.) and the residual rate was obtained based on the peak area. The residual rate, odor(odor change) and degree of coloration were evaluated based on the following methods and standards, and the results are shown in Table 41.
◯: 80% or more and less than 90%
Δ: 60% or more and less than 80%
X: 20% or more and less than 60%
It was evaluated according to the following criterion by 10 panelists.
Based on the evaluation results, classification was conducted as shown below.
◯: total point of 10 panelists is 25 or more
Δ: total point of 10 panelists is 16 to 24
X: total point of 10 panelists is 15 or less
3: almost no change as compared with that immediately after preparation
2: coloration is observed as compared with that immediately after preparation
1: intense coloration is observed as compared with that immediately after preparation

[3] = Stability Test 2: 2% aqueous solution, pH7, 50° C., 4 weeks (residual rate, odor, coloration); assay type: physicochemical
Experimental: as §1
The same test as in Test Example 2 was carried out excepting that the sample was stored at 50° C. for 4 weeks instead of storing at room temperature for 4 weeks.

[4] = tested on: Normal human dermal fibroblasts; assay: Collagen production of human fibroblast (Sircol collagen assay, 100 μM, 48 hours); assay type: cell-based; conditions: Homo sapiens, Fibroblast, cultured 48 hours, N=4, read-out: Collagen production promoting effect (collagen production amount, % of control group)
Method in brief: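 Dermal fibroblasts pre-cultured 24 h, then exposed 48 h to sample at 100 μM in 5% FBS D-MEM at 37 °C, 5% CO2. Free collagen measured by Sircol assay, N=4, expressed as % of untreated control.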

[5] = tested on: Normal human dermal fibroblasts; assay: Collagen production of human fibroblast 2 (100 μM or 500 μM; 2, 4 and 7 days); assay type: cell-based; conditions: for Collagen production amount in comparison with the control group (% value when the control group is 100%): Table 46, 100 μM or 500 μM (not stated which), average ± standard error, N=4
Experimental: Normal human dermal fibroblasts were regulated with a 10% (v/v) fetal bovine serum (manufactured by Roshe Diagnostics)-containing D-MEM so as to give a cell density of 2.5×10^4 cells/well, then, pre-incubation for 24 hours was performed on a 96-well plate. After the medium was removed, a sample regulated with a 5% (v/v) fetal bovine serum-containing D-MEM to a concentration of 100 μM was added to each well, then, cultured for 48 hours under 37° C. and 5% CO2. After completion of culturing, the amount of free collagen was measured using Sircol collagen assay kit (manufactured by Biocolor). The measurement was carried out at N=4.
Free collagen was measured under the same conditions as in Test Example 5 excepting that the concentration of each sample was 100 μM or 500 μM and culturing was carried out for 2 days, 4 days and 7 days. The measurement was carried out at N=4, and the average and standard error, in four test examples, of values of the collagen production amount in comparison with the control group (% value when the control group is 100%) are shown in Tables 46 and 47.

B16 melanoma 4A5 cell = assay: Whitening test: theophylline-induced melanine production in B16 melanoma 4A5 cells; assay type: cell-based, mouse; conditions: sample at a concentration of 100 μM or less; theophylline-induced melanine production; 3 days culture; N=4
Method in brief: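 Murine B16 4A5 cells were grown 24 h, then cultured 3 days in D-MEM with 10% FBS, 0.2 mM theophylline and sample. Melanin was dissolved in 2N NaOH at 60° C for 15 min, read at 450 nm against a synthetic-melanin standard and normalised to BCA protein. Suppression % = [1−(A−B)/(C−B)]×100 versus normal and control groups, with samples at ≤100 μM, N=4.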

[6] = storage period 2 weeks, 10 panelists
[7] = storage period 4 weeks, 10 panelists

Row | Residual rate ([2]; storage period 0) | Residual rate ([2]; storage period 2 weeks) | Residual rate ([2]; storage period 4 weeks) | Residual rate ([3]; storage period 0) | Residual rate ([3]; storage period 2 weeks) | Residual rate ([3]; storage period 4 weeks) | SMILES | Coloration ([2]; storage period 0, 10 panelists) | Odor ([2]; storage period 0, 10 panelists) | Coloration [2, 6] | Odor [2, 6] | Coloration [2, 7] | Odor [2, 7] | Coloration ([3]; storage period 0, 10 panelists) | Odor ([3]; storage period 0, 10 panelists) | Coloration [3, 6] | Odor [3, 6] | Coloration [3, 7] | Odor [3, 7] | activity at 100 µM [4] | Collagen production amount in comparison with the control group (% value when the control group is 100%) ([5]; culturing period 2 days) | further results
1 | ⊚ (⊚: 90% or more) | ◯ (◯: 80% or more and less than 90%) | X (X: 20% or more and less than 60%) | ◯ (◯: 80% or more and less than 90%) | X (X: 20% or more and less than 60%) | X (X: 20% or more and less than 60%) | O=C1O[C@H]([C@@H](O)CO)C(O)=C1O [ascorbic acid] | ◯ (◯: total point of 10 panelists is 25 or more) | ◯ (◯: total point of 10 panelists is 25 or more) | Δ (Δ: total point of 10 panelists is 16 to 24) | Δ (Δ: total point of 10 panelists is 16 to 24) | X (X: total point of 10 panelists is 15 or less) | X (X: total point of 10 panelists is 15 or less) | ◯ (◯: total point of 10 panelists is 25 or more) | ◯ (◯: total point of 10 panelists is 25 or more) | Δ (Δ: total point of 10 panelists is 16 to 24) | Δ (Δ: total point of 10 panelists is 16 to 24) | X (X: total point of 10 panelists is 15 or less) | X (X: total point of 10 panelists is 15 or less) | 100 to 200% | 252 ± 12% | Judgement of moisturizing effect (water amount) [1]: X (X: less than 10 mg); collagen production promoting effect over time (in words) ([5]; 100 μM or 500 μM, culturing 2, 4 and 7 days): lowers over time; Collagen production amount in comparison with the control group (% value when the control group is 100%) ([5]; culturing period 4 days): 182 ± 9%; Collagen production amount in comparison with the control group (% value when the control group is 100%) ([5]; culturing period 7 days): 139 ± 14%; Whitening effect (melanine production suppressing rate) (B16 melanoma 4A5 cell): ± (<20%:±)
2 | ⊚ (⊚: 90% or more) | ⊚ (⊚: 90% or more) | ⊚ (⊚: 90% or more) | ⊚ (⊚: 90% or more) | ⊚ (⊚: 90% or more) | ⊚ (⊚: 90% or more) | O=C1O[C@H]([C@@H](O)CO)C(O)=C1OCC(O)CO (stereo partly shown) [Example 3, 2-O-glyceryl ascorbic acid] | ◯ (◯: total point of 10 panelists is 25 or more) | ◯ (◯: total point of 10 panelists is 25 or more) | ◯ (◯: total point of 10 panelists is 25 or more) | ◯ (◯: total point of 10 panelists is 25 or more) | ◯ (◯: total point of 10 panelists is 25 or more) | ◯ (◯: total point of 10 panelists is 25 or more) | ◯ (◯: total point of 10 panelists is 25 or more) | ◯ (◯: total point of 10 panelists is 25 or more) | ◯ (◯: total point of 10 panelists is 25 or more) | ◯ (◯: total point of 10 panelists is 25 or more) | ◯ (◯: total point of 10 panelists is 25 or more) | ◯ (◯: total point of 10 panelists is 25 or more) | 100 to 200% | 226 ± 10% | moisturizing effect (in words) ([1]; conclusion from Table 43, compared with ascorbic acid): excellent moisturizing effect by far than ascorbic acid; Collagen production amount in comparison with the control group (% value when the control group is 100%) ([5]; culturing period 4 days): 193 ± 6%; Collagen production amount in comparison with the control group (% value when the control group is 100%) ([5]; culturing period 7 days): 258 ± 22%; Whitening effect (melanine production suppressing rate) (B16 melanoma 4A5 cell): + (20 to 40%:+)
